From US20230233569A1 (Revolution Medicines, Inc., priority 2020, published 2023)

Legend:
NRAS Q61R = NRAS Q61R (Homo sapiens, UniProt P01111+P62937, Q61R); experiment: Disruption of BRAF RBD interaction with Ras (FRET / MOA assay, with Cyclophilin A); assay type: biochemical; conditions: NRAS Q61R; read-out: NRAS Q61R FRET data IC50
Summary of the method: (§1)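 IC50 reflects compound-driven Ras:Cyclophilin A ternary complex displacing BRAF RBD, read as lowered TR-FRET ratio relative to DMSO after Eu anti-His (10 nM) and APC anti-GST (50 nM) detection for 1.5 h. Prior incubation 3 h, 25° C, with 12.5 nM GMPPNP-loaded Ras, 50 nM BRAF RBD, 25 μM Cyclophilin A; top compound 30 μM.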

KRAS Q61H = KRAS Q61H (Homo sapiens, UniProt P01116+P62937, Q61H); experiment: as above; assay type: biochemical; conditions: KRAS Q61H; read-out: KRAS Q61H FRET data IC50
Chain of KRAS Q61H (P01116 1-169 isoform P01116-2 Q61H limits assumed): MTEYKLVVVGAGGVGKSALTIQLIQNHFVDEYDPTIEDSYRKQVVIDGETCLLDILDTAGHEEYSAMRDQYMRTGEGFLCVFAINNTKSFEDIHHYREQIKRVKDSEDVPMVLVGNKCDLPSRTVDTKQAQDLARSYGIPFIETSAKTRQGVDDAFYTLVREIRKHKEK
Chain of KRAS Q61H (P62937 whole entry): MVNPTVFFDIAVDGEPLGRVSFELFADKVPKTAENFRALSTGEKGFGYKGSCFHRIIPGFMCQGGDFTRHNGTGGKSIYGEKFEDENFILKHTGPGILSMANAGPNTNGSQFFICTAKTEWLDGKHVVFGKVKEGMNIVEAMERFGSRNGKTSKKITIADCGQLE
Summary of the method: as §1

NRAS WT = NRAS WT (Homo sapiens, UniProt P01111+P62937); experiment: as above; assay type: biochemical; conditions: NRAS WT; read-out: NRAS WT FRET data IC50
Chain of NRAS WT (P01111 whole entry): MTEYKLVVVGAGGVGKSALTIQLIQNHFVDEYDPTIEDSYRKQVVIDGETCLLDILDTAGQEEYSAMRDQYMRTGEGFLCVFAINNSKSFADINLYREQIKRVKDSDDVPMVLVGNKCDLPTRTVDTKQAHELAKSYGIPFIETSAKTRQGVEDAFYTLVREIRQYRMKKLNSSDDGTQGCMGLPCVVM
Chain of NRAS WT (P62937 whole entry): as the sequence (P62937 whole entry) above
Summary of the method: as §1

NRAS Q61K = NRAS Q61K (Homo sapiens, UniProt P01111+P62937, Q61K); experiment: as above; assay type: biochemical; conditions: NRAS Q61K; read-out: NRAS Q61K FRET data IC50
Chain of NRAS Q61K (P01111 whole entry Q61K): as the sequence (P01111 whole entry) above, with Q61K counted along it
Chain of NRAS Q61K (P62937 whole entry): as the sequence (P62937 whole entry) above
Summary of the method: as §1

Capan-1 (K-Ras G12V) = experiment: CellTiter-Glo cell viability assay, 5-day treatment; assay type: cell-based; conditions: Homo sapiens, CAPAN-1, 120 h, 5-day treatment; read-out: Capan-1 Cell Viability assay data (K-Ras G12V, IC50)
Summary of the method: (§2)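 Viability is read as luminescence on day 5 after direct compound addition to plated cells, following about 30 minutes' room-temperature equilibration. Each signal is scaled to mean DMSO as 100%.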

NCI-H358 (K-Ras G12C) = experiment: as above; assay type: cell-based; conditions: Homo sapiens, NCI-H358, 120 h, 5-day treatment; read-out: H358 Cell Viability assay data (K-Ras G12C, IC50)
Summary of the method: as §2

KRAS G12V = KRAS G12V (Homo sapiens, UniProt P01116+P62937, G12V); experiment: Disruption of BRAF RBD interaction with Ras (FRET / MOA assay, with Cyclophilin A); assay type: biochemical; conditions: KRAS G12V; read-out: KRAS G12V FRET data IC50
Chain of KRAS G12V (P01116 1-169 isoform P01116-2 G12V limits assumed): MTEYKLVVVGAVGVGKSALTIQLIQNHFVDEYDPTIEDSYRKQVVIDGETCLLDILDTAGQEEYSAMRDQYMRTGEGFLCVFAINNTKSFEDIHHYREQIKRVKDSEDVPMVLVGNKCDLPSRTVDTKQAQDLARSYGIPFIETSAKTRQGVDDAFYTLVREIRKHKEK
Chain of KRAS G12V (P62937 whole entry): as the sequence (P62937 whole entry) above
Summary of the method: (§3)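 IC50 values reflect loss of K-Ras binding to BRAF RBD, read as a lowered TR-FRET ratio compared with DMSO, driven by compound-mediated K-Ras:Cyclophilin A complex formation. Compound top dose 30 μM final, 3-fold steps, 3 h incubation at 25 °C before a 1.5 h antibody step.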

KRAS G12S = KRAS G12S (Homo sapiens, UniProt P01116+P62937, G12S); experiment: as above; assay type: biochemical; conditions: read-out: KRAS G12S FRET data, IC50
Chain of KRAS G12S (P01116 1-169 isoform P01116-2 G12S limits assumed): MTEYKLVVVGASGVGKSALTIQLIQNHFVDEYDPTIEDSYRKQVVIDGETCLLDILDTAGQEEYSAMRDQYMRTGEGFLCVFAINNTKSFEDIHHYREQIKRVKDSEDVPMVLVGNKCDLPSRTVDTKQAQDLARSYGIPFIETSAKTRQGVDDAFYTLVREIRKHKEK
Chain of KRAS G12S (P62937 whole entry): as the sequence (P62937 whole entry) above
Summary of the method: as §3

KRAS G13D = KRAS G13D (Homo sapiens, UniProt P01116+P62937, G13D); experiment: as above; assay type: biochemical; conditions: KRAS G13D; read-out: KRAS G13D FRET data IC50
Chain of KRAS G13D (P01116 1-169 isoform P01116-2 G13D limits assumed): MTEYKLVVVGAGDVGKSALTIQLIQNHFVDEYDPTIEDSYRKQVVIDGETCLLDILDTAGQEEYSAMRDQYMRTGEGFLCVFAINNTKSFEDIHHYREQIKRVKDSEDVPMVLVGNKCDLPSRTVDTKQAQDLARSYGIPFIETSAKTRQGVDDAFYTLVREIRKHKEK
Chain of KRAS G13D (P62937 whole entry): as the sequence (P62937 whole entry) above
Summary of the method: as §3

KRAS G12D = KRAS G12D (Homo sapiens, UniProt P01116+P62937, G12D); experiment: as above; assay type: biochemical; conditions: read-out: KRAS G12D FRET data, IC50
Chain of KRAS G12D (P01116 1-169 isoform P01116-2 G12D limits assumed): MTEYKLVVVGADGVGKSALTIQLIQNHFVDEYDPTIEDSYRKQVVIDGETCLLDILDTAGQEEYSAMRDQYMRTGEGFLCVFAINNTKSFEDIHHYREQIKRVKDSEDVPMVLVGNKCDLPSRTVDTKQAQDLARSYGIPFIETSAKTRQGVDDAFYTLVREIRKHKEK
Chain of KRAS G12D (P62937 whole entry): as the sequence (P62937 whole entry) above
Summary of the method: as §3

KRAS G12C = KRAS G12C (Homo sapiens, UniProt P01116+P62937, G12C); experiment: as above; assay type: biochemical; conditions: read-out: KRAS G12C FRET data, IC50
Chain of KRAS G12C (P01116 1-169 isoform P01116-2 G12C): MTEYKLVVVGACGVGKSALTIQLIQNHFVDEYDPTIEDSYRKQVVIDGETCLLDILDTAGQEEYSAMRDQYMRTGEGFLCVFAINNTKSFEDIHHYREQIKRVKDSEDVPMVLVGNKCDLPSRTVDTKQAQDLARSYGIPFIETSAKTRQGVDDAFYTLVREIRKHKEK
Chain of KRAS G12C (P62937 whole entry): as the sequence (P62937 whole entry) above
Summary of the method: as §3

NRAS G12C = NRAS G12C (Homo sapiens, UniProt P01111+P62937, G12C); experiment: as above; assay type: biochemical; conditions: NRAS G12C; read-out: NRAS G12C FRET data IC50
Chain of NRAS G12C (P01111 whole entry G12C): as the sequence (P01111 whole entry) above, with G12C counted along it
Chain of NRAS G12C (P62937 whole entry): as the sequence (P62937 whole entry) above

KRAS G13C = KRAS G13C (Homo sapiens, UniProt P01116+P62937, G13C); experiment: as above; assay type: biochemical; conditions: read-out: KRAS G13C FRET data, IC50
Chain of KRAS G13C (P01116 1-169 isoform P01116-2 G13C): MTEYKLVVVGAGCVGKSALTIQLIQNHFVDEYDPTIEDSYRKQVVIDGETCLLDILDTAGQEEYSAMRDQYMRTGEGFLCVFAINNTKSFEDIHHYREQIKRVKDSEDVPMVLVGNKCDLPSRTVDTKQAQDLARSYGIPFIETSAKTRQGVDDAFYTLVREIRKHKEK
Chain of KRAS G13C (P62937 whole entry): as the sequence (P62937 whole entry) above
Summary of the method: as §3

KRAS WT = KRAS WT (Homo sapiens, UniProt P01116+P62937); experiment: as above; assay type: biochemical; conditions: KRAS WT; read-out: KRAS WT FRET data IC50
Chain of KRAS WT (P01116 1-169 isoform P01116-2 limits assumed): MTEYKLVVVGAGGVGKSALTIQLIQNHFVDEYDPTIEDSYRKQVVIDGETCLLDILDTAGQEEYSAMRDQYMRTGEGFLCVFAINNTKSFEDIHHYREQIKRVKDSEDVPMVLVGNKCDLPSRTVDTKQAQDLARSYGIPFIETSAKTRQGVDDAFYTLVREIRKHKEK
Chain of KRAS WT (P62937 whole entry): as the sequence (P62937 whole entry) above
Summary of the method: as §3

Chain of NRAS Q61R (P01111 whole entry Q61R): as the sequence (P01111 whole entry) above, with Q61R counted along it
Chain of NRAS Q61R (P62937 whole entry): as the sequence (P62937 whole entry) above

Compound	IC50 (NRAS Q61R) [nM]	IC50 (KRAS Q61H) [nM]	IC50 (NRAS WT) [nM]	IC50 (NRAS Q61K) [nM]	IC50 (NCI-H358 (K-Ras G12C)) [nM]	IC50 (KRAS G12V) [nM]	IC50 (KRAS G12S) [nM]	IC50 (KRAS G13D) [nM]	IC50 (KRAS G12D) [nM]	IC50 (KRAS G12C) [nM]	IC50 (NRAS G12C) [nM]	IC50 (KRAS G13C) [nM]	IC50 (KRAS WT) [nM]	IC50 (Capan-1 (K-Ras G12V)) [nM]
CCn1c(-c2cccnc2[C@H](C)OC)c2c3cc(ccc31)-c1csc(n1)C[C@H](NC(=O)[C@H](C(C)C)N(C)C(=O)N1CC[C@@H]1CN(C)C)C(=O)N1CCC[C@H](N1)C(=O)OCC(C)(C)C2 [Example A502]	100 to 1000	10 to 100	100 to 1000	100 to 1000	10 to 100	1000 to 10000	100 to 1000	100 to 1000	100 to 1000	100 to 1000	100 to 1000	100 to 1000	100 to 1000	100 to 1000
CCn1c(-c2cccnc2[C@H](C)OC)c2c3cc(ccc31)-c1csc(n1)C[C@H](NC(=O)[C@H](C1CCCC1)N(C)C(=O)N1CCN(C)CC1)C(=O)N1CCC[C@H](N1)C(=O)OCC(C)(C)C2 [Example A525]	100 to 1000	100 to 1000	100 to 1000	100 to 1000	10 to 100	100 to 1000	100 to 1000	100 to 1000	1000 to 10000	100 to 1000	100 to 1000	100 to 1000	100 to 1000	10 to 100
CCn1c(-c2cccnc2[C@H](C)OC)c2c3cc(ccc31)-c1csc(n1)C[C@H](NC(=O)[C@H](C(C)C)N(C)C(=O)N1CC3CCN(C)CC31)C(=O)N1CCC[C@H](N1)C(=O)OCC(C)(C)C2 (stereo partly drawn) [Example A539]	1000 to 10000	1000 to 10000	1000 to 10000	1000 to 10000	100 to 1000	1000 to 10000	1000 to 10000	1000 to 10000	1000 to 10000	1000 to 10000	100 to 1000	1000 to 10000	1000 to 10000	100 to 1000
CCn1c(-c2cccnc2[C@H](C)OC)c2c3cc(ccc31)-c1csc(n1)C[C@H](NC(=O)[C@H](C(C)C)N(C)C(=O)N1C3CC1CN(C)C3)C(=O)N1CCC[C@H](N1)C(=O)OCC(C)(C)C2 [Example A541]	100 to 1000	100 to 1000	100 to 1000	100 to 1000	10 to 100	100 to 1000	100 to 1000	1000 to 10000	1000 to 10000	100 to 1000	100 to 1000	100 to 1000	100 to 1000	100 to 1000
CCn1c(-c2cccnc2[C@H](C)OC)c2c3cc(ccc31)-c1csc(n1)C[C@H](NC(=O)[C@H](C(C)C)N(C)C(=O)N1CCN3CCOC[C@@H]3C1)C(=O)N1CCC[C@H](N1)C(=O)OCC(C)(C)C2 [Example A547]	100 to 1000	100 to 1000	100 to 1000	100 to 1000	10 to 100	100 to 1000	100 to 1000	1000 to 10000	1000 to 10000	100 to 1000	100 to 1000	100 to 1000	100 to 1000	10 to 100
CCn1c(-c2cccnc2[C@H](C)OC)c2c3cc(ccc31)-c1csc(n1)C[C@H](NC(=O)[C@H](C(C)C)N(C)C(=O)N1CCN(C)CC1)C(=O)N1CCC[C@H](N1)C(=O)OCC(C)(C)C2 [Example A570]	100 to 1000	100 to 1000	100 to 1000	100 to 1000	10 to 100	100 to 1000	100 to 1000	100 to 1000	1000 to 10000	100 to 1000	100 to 1000	100 to 1000	100 to 1000	10 to 100

Further lines, with some results ahead:

IC50 (NRAS Q61R) [nM]	IC50 (KRAS Q61H) [nM]	IC50 (NRAS WT) [nM]	IC50 (NRAS Q61K) [nM]	IC50 (NCI-H358 (K-Ras G12C)) [nM]	IC50 (KRAS G12V) [nM]	IC50 (KRAS G12S) [nM]	IC50 (KRAS G13D) [nM]	IC50 (KRAS G12D) [nM]	IC50 (KRAS G12C) [nM]	IC50 (NRAS G12C) [nM]	IC50 (KRAS G13C) [nM]	IC50 (KRAS WT) [nM]	Compound	IC50 (Capan-1 (K-Ras G12V)) [nM]
100 to 1000	100 to 1000	1000 to 10000	100 to 1000	10 to 100	1000 to 10000	1000 to 10000	1000 to 10000	1000 to 10000	100 to 1000	100 to 1000	1000 to 10000	1000 to 10000	CCn1c(-c2cccnc2[C@H](C)OC)c2c3cc(ccc31)-c1csc(n1)C[C@H](NC(=O)[C@H](C(C)C)N(C)C(=O)N1CC3(CN(C)CCO3)C1)C(=O)N1CCC[C@H](N1)C(=O)OCC(C)(C)C2 [Example A499]	10 to 100
1000 to 10000	100 to 1000	100 to 1000	1000 to 10000	100 to 1000	1000 to 10000	1000 to 10000	100 to 1000	1000 to 10000	100 to 1000	100 to 1000	100 to 1000	100 to 1000	CCn1c(-c2cccnc2[C@H](C)OC)c2c3cc(ccc31)-c1csc(n1)C[C@H](NC(=O)[C@H](C(C)C)N(C)C(=O)N(C)C[C@@H]1CCCN1C)C(=O)N1CCC[C@H](N1)C(=O)OCC(C)(C)C2 [Example A504]	100 to 1000
100 to 1000	100 to 1000	100 to 1000	100 to 1000	10 to 100	100 to 1000	100 to 1000	100 to 1000	1000 to 10000	100 to 1000	100 to 1000	100 to 1000	100 to 1000	CCn1c(-c2cccnc2[C@H](C)OC)c2c3cc(ccc31)-c1csc(n1)C[C@H](NC(=O)[C@H](C(C)C)N(C)C(=O)N1CC3(CCN(C)CC3)C1)C(=O)N1CCC[C@H](N1)C(=O)OCC(C)(C)C2 [Example A513]	10 to 100
1000 to 10000	100 to 1000	100 to 1000	1000 to 10000	1000 to 10000	1000 to 10000	1000 to 10000	1000 to 10000	1000 to 10000	100 to 1000	100 to 1000	1000 to 10000	100 to 1000	CCn1c(-c2cccnc2[C@H](C)OC)c2c3cc(ccc31)-c1csc(n1)C[C@H](NC(=O)[C@H](C(C)C)N(C)C(=O)N1CCC[C@H]1CN(C)C)C(=O)N1CCC[C@H](N1)C(=O)OCC(C)(C)C2 [Example A519]	1000 to 10000
100 to 1000	100 to 1000	100 to 1000	100 to 1000	100 to 1000	100 to 1000	100 to 1000	100 to 1000	1000 to 10000	100 to 1000	100 to 1000	100 to 1000	100 to 1000	CCn1c(-c2cccnc2[C@H](C)OC)c2c3cc(ccc31)-c1csc(n1)C[C@H](NC(=O)[C@H](C(C)C)N(C)C(=O)N1CC([C@H](C)NC)C1)C(=O)N1CCC[C@H](N1)C(=O)OCC(C)(C)C2 [Example A535]	100 to 1000
100 to 1000	100 to 1000	100 to 1000	100 to 1000	10 to 100	100 to 1000	1000 to 10000	1000 to 10000	1000 to 10000	100 to 1000	100 to 1000	100 to 1000	100 to 1000	CCn1c(-c2cccnc2[C@H](C)OC)c2c3cc(ccc31)-c1csc(n1)C[C@H](NC(=O)[C@H](C(C)C)N(C)C(=O)N1CCN3CCOC[C@H]3C1)C(=O)N1CCC[C@H](N1)C(=O)OCC(C)(C)C2 [Example A548]	10 to 100
